Source: patent publication US12583825B2, “Benzo[h]quinazolin-4-amine and thieno[3,2-h]quinazolin-4-amine derivatives for the treatment of cancer” (Redona Therapeutics, Inc., priority 2020, dated 2026)
Entries after “also recorded” stand apart in the source; their conditions may differ.

How the values were obtained:
recombinant human CLK3 = molecular target: T1, recombinant human CLK3 (Homo sapiens, UniProt P49761); assay: CLK3 kinase assay (LANCE Ultra); assay type: biochemical; details: 0.5 nM CLK3, 300 μM ATP, 3 hours at 30° C.
T1 construct: purchased Thermo Fisher Scientific PV3826
T1 sequence (P49761 whole entry): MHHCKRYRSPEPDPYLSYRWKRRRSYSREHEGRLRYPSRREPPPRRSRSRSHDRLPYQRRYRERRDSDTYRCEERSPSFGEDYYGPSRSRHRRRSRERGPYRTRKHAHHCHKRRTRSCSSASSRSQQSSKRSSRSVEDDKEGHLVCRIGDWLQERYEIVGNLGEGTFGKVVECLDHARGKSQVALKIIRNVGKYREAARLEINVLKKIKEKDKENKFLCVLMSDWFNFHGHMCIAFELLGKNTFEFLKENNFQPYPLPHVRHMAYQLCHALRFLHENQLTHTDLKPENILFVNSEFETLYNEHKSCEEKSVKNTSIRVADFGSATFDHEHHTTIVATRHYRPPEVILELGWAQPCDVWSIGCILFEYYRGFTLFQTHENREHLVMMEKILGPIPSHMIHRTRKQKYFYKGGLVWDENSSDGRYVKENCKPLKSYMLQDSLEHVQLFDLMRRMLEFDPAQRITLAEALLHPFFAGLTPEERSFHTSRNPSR
Summary of the method: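 TR-FRET (LANCE Ultra) read-out of phospho-CREBtide after a 3 h, 30 °C reaction containing 300 μM ATP, 50 nM ULight-CREBtide and 0.5 nM recombinant human CLK3, compounds in 1% DMSO.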

MDA-MB-231 cells = assay: MDA-MB-231 proliferation assay; assay type: cell-based; details: Homo sapiens, 72 hours, YO-PRO-1 readout
Summary of the method: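 Cells seeded at 750/well in DMEM with 10% FBS, treated 72 h at 37 °C, 0.5% DMSO final. Cell number read by YO-PRO-1 fluorescence (485/530 nm), normalised to DMSO (100%) and time-of-addition cells (0%); 4-parameter logistic fit with maximum fixed at 100%.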

[1] = test system: phospho-SRSF6 levels in MDA-MB-468 cells; assay: Inhibition of phospho-SRSF6 levels in MDA-MB-468 cells (Western blot); assay type: cell-based; details: Homo sapiens, 100 nM, 2 hours, normalized by GAPDH, read-out: % Intensity of p-SRSF6 signal at 100 nM compared to DMSO control
Procedure: FIG. 1: FIG. 1 provides a representative Western blot showing reduction of phosphorylated-SRSF6 (P-SRSF6) in MDA-MB 468 cells by compounds of the invention. GAPDH was probed for by Western blotting to control for equal protein loading and for normalization of samples. The numbers below the blots show percent intensity of P-SRSF6 signal at 100 nM compared to DMSO control.
Assessment of Inhibition of Phospho-SRSF6 Levels in MDA-MB-468 Cells
MDA-MB-468 cells (ATCC, HTB-132) were cultured in DMEM (BioConcept cat. no. 1-26F03) supplemented with 10% FBS (Sigma cat. no. F9665), 1% Na-pyruvate (Sigma cat. no. S8636), 1% Penicillin-Streptomycin (BioConcept cat. no. 4-01F00-H). When cells reached a density of 70% in 6-well plates (TPP cat. no. 92006), they were treated either with the test compound vehicle DMSO, or with experimental compounds at a final concentration of 100 nM for 2 hours. Thereafter, the culture medium was removed and cells were collected by scraping in Lysis Buffer (20 mM Tris HCl pH7.5, 150 mM NaCl, 1 mM EGTA, 1 mM EDTA, 1% Triton and 1% NP-40) containing protease and phosphatase inhibitors (Halt™ Protease&Phosphatase inhibitor cocktail 100× ThermoScientific cat. no. 1861281) and 1 mM PMSF (Fluka cat. no. 93482). Cleared lysates were stored in Eppendorf tubes at −80° C. until use, and protein concentration in lysates was determined using Pierce 660 nm Protein Assay Reagent (ThermoScientific cat. no. 22660). 20 μg proteins were diluted in 4× Laemmli buffer (Biorad cat. no. 161-0747) containing 10% beta-mercaptoethanol, separated by SDS-PAGE using 10% gels, and then transferred to PVDF membranes (Trans Blot Turbo Transfer Pack BioRad cat. no. 1704156) by Trans-Blot® Turbo™ System semidry blotting methodology (BioRad). Primary antibodies were incubated in TBS-0.1% Tween-20 buffer containing 3% BSA Bovine Albumin Fr.V (Millipore cat. no. 81-053-3) overnight at 4° C. The following primary antibodies were used: Mouse anti-phosphoepitope SR proteins clone 1H4 (Millipore cat. no. MABE50) diluted 1:5000, and rabbit anti-GAPDH clone 14C10 (Cell Signaling cat. no. 2118S) to control for equal protein loading, diluted 1:2000. HRP-conjugated secondary antibodies were incubated one hour at room temperature diluted 1:5000 in TBS-0.1% Tween-20 buffer containing 5% nonfat-dried bovine milk (Sigma cat. no. M7409). The following secondary antibodies were used: Goat anti-mouse-HRP (Jackson cat. no. 115-035-146) and goat anti-rabbit-HRP (Jackson cat. no. 111-035-144). Membranes were incubated with ECL Prime Western Blot Detection Reagent (Amersham cat. no. RPN2236) to detect specific signals using Fusion SOLO S device (Vilber Lourmat). Pixel intensity of the phopsho-SRSF6 (MW 55 kDa in reference to markers) and GAPDH (MW 37 kDa) signals in the Western blots were determined using Evolution-Capt image analysis software (v17.01, Vilber Lourmat). DMSO control was used to set the phospho-SRSF6 signal at baseline, phospho-SRSF6 signals for each sample were normalized by the respective GAPDH signals and percent intensity of P-SRSF6 signal at 100 nM compound compared to DMSO control was calculated (see FIG. 1).

[2] = test system: CAL-51 triple-negative breast cancer xenograft; assay: CAL-51 triple-negative breast cancer mouse xenograft model; details: for tumor volumes smaller compared to the vehicle-treated group: day 21, female NCG mice; for tumor volumes compared with vehicle-treated animals (one-way ANOVA, P<0.05): day 21
Procedure: A pair match was performed when tumors reached an average volume of 100-150 mm^3 to distribute animals into treatment groups (n=8/group), and treatment of the respective groups was initiated. Tumor volumes (expressed in mm^3) were measured twice weekly using a caliper on days 1, 3, 7, 10, 14, 17 and 21 of the treatment period.
To this end, the CAL-51 triple-negative breast cancer xenograft model was used, in which the tumor cells are injected subcutaneously into the flanks of immunodeficient NCG mice (lack functional/mature T, B, and NK cells, and have reduced macrophage and dendritic cell function). […] CAL-51 cells were harvested when they were growing exponentially.
Female NCG mice were used for the study at 8-12 weeks of age (Charles River Laboratories). Mice were inoculated subcutaneously in the flank region with 1×10^7 CAL-51 cells in 50% Matrigel™ in a final injection volume of 0.1 mL/mouse. Once tumors reached an average size of 100-150 mm^3, a pair match was carried out to distribute mice to the different treatment groups.
Tumor volumes (expressed in mm^3) were measured in two dimensions using a caliper on days 1, 3, 7, 10, 14, 17 and 21 of the treatment period. […] Results represent mean values±SEM. Tumor volumes at the conclusion of the study were analyzed by one-way ANOVA analysis to compare treatment groups to the vehicle group. The significance level was set to P<0.05. Calculations were conducted using GraphPad™ Prism version 9.

SMILES	IC50 (recombinant human CLK3) [nM]	GI50 (MDA-MB-231 cells) [nM]	activity at 0.1 µM [1] [%]	tumor volumes smaller compared to the vehicle-treated group ([2]; 25 mg/kg daily orally) [%]	tumor volumes smaller compared to the vehicle-treated group ([2]; 60 mg/kg three times a week orally) [%]	tumor volumes compared with vehicle-treated animals (one-way ANOVA, P<0.05) ([2]; 60 mg/kg thrice weekly)	tumor volumes smaller compared to the vehicle-treated group ([2]; 85 mg/kg twice a week orally) [%]	tumor volumes compared with vehicle-treated animals (one-way ANOVA, P<0.05) ([2]; 85 mg/kg twice weekly)	tolerability, as evidenced by body weight assessments ([2]; oral 25, 60 or 85 mg/kg schedules, days 1-21, female NCG mice)
COCCO/N=C1\c2cc(O[C@H]3CC[C@H](N)CC3)ccc2-c2ncnc(N)c2C1(C)C [Example 29, (6Z)-8-(trans-4-aminocyclohexoxy)-6-(2-methoxyethoxyimino)-5,5-dimethyl-benzo[h]quinazolin-4-amine]	15.4	378	12	41.8	42.7	significant; also recorded: significantly smaller	46.8	significant; also recorded: significantly smaller	well tolerated
CO/N=C1\c2cc(CC3CCNCC3)ccc2-c2ncnc(N)c2C1(C)C [Example 70, (6Z)-6-methoxyimino-5,5-dimethyl-8-(4-piperidylmethyl)benzo[h]quinazolin-4-amine]	9.1	630	34	–	–	–	–	–	–
CO/N=C1\c2cc(C[C@H]3CC[C@H](N)CC3)ccc2-c2ncnc(N)c2C1(C)C [Example 74, (6Z)-8-[(trans-4-aminocyclohexyl)methyl]-6-methoxyimino-5,5-dimethyl-benzo[h]quinazolin-4-amine]	4.8	255	28	–	–	–	–	–	–
C[C@H](O)CO/N=C1\c2cc(O[C@H]3CC[C@H](N)CC3)ccc2-c2ncnc(N)c2C1(C)C [Example 79, (2S)-1-[(Z)-[4-amino-8-(trans-4-aminocyclohexoxy)-5,5-dimethyl-benzo[h]quinazolin-6-ylidene]amino]oxypropan-2-ol]	40.7	971	34	–	–	–	–	–	–
COCCO/N=C1\c2cc(O[C@H]3CC[C@@H](N)CC3)ccc2-c2ncnc(N)c2C1(C)C [Example 82, (6Z)-8-(cis-4-aminocyclohexoxy)-6-(2-methoxyethoxyimino)-5,5-dimethyl-benzo[h]quinazolin-4-amine]	9.7	98.5	15	–	–	–	–	–	–
CC1(C)/C(=N/OCCC#N)c2cc(O[C@H]3CC[C@@H](N)CC3)ccc2-c2ncnc(N)c21 [Example 83, 3-[(Z)-[4-amino-8-(cis-4-aminocyclohexoxy)-5,5-dimethyl-benzo[h]quinazolin-6-ylidene]amino]oxypropanenitrile]	4.9	96.2	9	–	–	–	–	–	–
CC1(C)/C(=N/OCCO)c2cc(O[C@H]3CC[C@@H](N)CC3)ccc2-c2ncnc(N)c21 [Example 87, 2-[(Z)-[4-amino-8-(cis-4-aminocyclohexoxy)-5,5-dimethyl-benzo[h]quinazolin-6-ylidene]amino]oxyethanol]	18.7	255	10	–	–	–	–	–	–
COCCN1C[C@@H](CO/N=C2\c3cc(Br)ccc3-c3ncnc(N)c3C2(C)C)OC1=O [Example 90, (5S)-5-[[(Z)-(4-amino-8-bromo-5,5-dimethyl-benzo[h]quinazolin-6-ylidene)amino]oxymethyl]-3-(2-methoxyethyl)oxazolidin-2-one]	9.37	863	29	–	–	–	–	–	–
CC1(C)/C(=N/OC[C@@H]2CN(CCO)C(=O)O2)c2cc(Br)ccc2-c2ncnc(N)c21 [Example 91, (5S)-5-[[(Z)-(4-amino-8-bromo-5,5-dimethyl-benzo[h]quinazolin-6-ylidene)amino]oxymethyl]-3-(2-hydroxyethyl)oxazolidin-2-one]	5.1	459	15	–	–	–	–	–	–
CC1(C)/C(=N/OC[C@@H]2CNC(=O)O2)c2cc(I)ccc2-c2ncnc(N)c21 [Example 93, (5S)-5-[[(Z)-(4-amino-8-iodo-5,5-dimethyl-benzo[h]quinazolin-6-ylidene)amino]oxymethyl]oxazolidin-2-one]	6.2	240	19	–	–	–	–	–	–
CC1(C)/C(=N/OC[C@@H]2CN(CCO)C(=O)O2)c2cc(I)ccc2-c2ncnc(N)c21 [Example 97, (5S)-5-[[(Z)-(4-amino-8-iodo-5,5-dimethyl-benzo[h]quinazolin-6-ylidene)amino]oxymethyl]-3-(2-hydroxyethyl)oxazolidin-2-one]	1.7	158	21	–	–	–	–	–	–
COCCO/N=C1\c2cc(O[C@H]3CC[C@H](N)CC3)ccc2-c2ncnc(N)c2C12CCCC2 [Example 99, (6Z)-8-(trans-4-aminocyclohexoxy)-6-(2-methoxyethoxyimino)spiro[benzo[h]quinazoline-5,1′-cyclopentane]-4-amine]	5.8	27.6	17	–	–	–	–	–	–
N#CCCO/N=C1\c2cc(O[C@H]3CC[C@@H](N)CC3)ccc2-c2ncnc(N)c2C12CCCC2 [Example 101, 3-[(Z)-[4-amino-8-(cis-4-aminocyclohexoxy)spiro[benzo[h]quinazoline-5,1′-cyclopentane]-6-ylidene]amino]oxypropanenitrile]	1.2	4.5	8	–	–	–	–	–	–
N#CCCO/N=C1\c2cc(O[C@H]3CC[C@H](N)CC3)ccc2-c2ncnc(N)c2C12CCCC2 [Example 102, 3-[(Z)-[4-amino-8-(trans-4-aminocyclohexoxy)spiro[benzo[h]quinazoline-5,1′-cyclopentane]-6-ylidene]amino]oxypropanenitrile]	2.9	10.1	7	–	–	–	–	–	–
CC(F)(F)CCO/N=C1\c2cc(O[C@H]3CC[C@@H](N)CC3)ccc2-c2ncnc(N)c2C1(C)C [Example 115, (6Z)-8-(cis-4-aminocyclohexoxy)-6-(3,3-difluorobutoxyimino)-5,5-dimethyl-benzo[h]quinazolin-4-amine]	19.4	102	17	–	–	–	–	–	–
